Data taken from patent US9505741B2, “Prolylhydroxylase inhibitors and methods of use” (CORNELL UNIVERSITY, priority 2010, dated 2016).

Test system: HIF ODD-luc reporter (HIF PHD-controlled stability)
Test: HTS with cell-based HIF ODD-luciferase reporter (SH-SY5Y-ODD-luc cells)
Design: species or system human
Details: three hours; for activation at 10 µM: Homo sapiens, 3 h, read-out: reporter activation (%) relative to ciclopirox (100%) and DMSO (0%)
From the text: For HTS, a cell-based reporter system was employed. The cell-based reporter system was generated by fusing HIF-1a oxygen degradable domain (ODD) to luciferase (Safran M. et al., PNAS, 2006, 103, 105-110), which represents a cell-based capture assay monitored by the consumption of the luciferase-labeled HIF substrate under the conditions more physiological than in vitro test tubes. In accord with their structure activity relationship in reporter assay, the best “hits” stabilize HIF1, upregulate known HIF target genes in a human neuronal line, and exert neuroprotective effects in established model of oxidative stress in cortical neurons.
The reporter cell lines constitutively expressing ODD-luc (human neuroblastoma, SH-SY5Y) were stable for more than one year without significant change in their response to canonical PHD inhibitors such as DFO, dihydroxybenzoate (DHB), dimethyloxalylglycine (DMOG), and ciclopirox (FIG. 1B). In order to verify the specificity of luciferase changes as an assay for PHD activity, several control lines were developed: the control line expressing ODD-luc with proline 564 and 567 mutated to Ala generates luciferase fusion that cannot be degraded and experimentally identifies a ceiling level of ODD-luc protein attainable in these cells. The background signal for the wild-type HIF ODD-luc line (PYIP) corresponds to approximately 5-6% of the ODD-luc levels in the control line AYIA (double mutant P564A/P567A line) (FIG. 2). Treatment with 10 μM ciclopirox results in a 10-fold increase of a background signal for the wild-type ODD-luc reporter (PYIP line), i.e. reaches almost 50% of the threshold value (FIG. 2).
The assay was optimized for HTS format to provide Z values above 0.7. SH-SY5Y-ODD-luc cells were plated into 384—well white flat-bottom plates at 7,000 cell/well in 30 μl of serum and incubated overnight at 37° C., 5% CO2. The next day, compounds were added to a final concentration of 10 μM, plates were incubated for three hours at 37° C., and luciferase activity was measured using SteadyGlo™ reagent (Promega). Each plate had two internal standards, ciclopirox (100%), and DMSO (0%). The reporter activation (%) was calculated as a ratio (L−LDMSO)/(Lciclopirox−LDMSO). Hits were defined as those >25%. HTS of 85,000 compounds was performed at Rockefeller HTS Resource Center. 295 hits from the initial screen have been tested in quadruplicate, 160 were confirmed. Classification into 10 structural clusters has been done manually; 25 hits were singletons.

Row | SMILES | reporter activation in HTS, in words (10 μM) | activation at 10 µM (SH-SY5Y-ODD-luc) [%] | also measured
1 | CCC(C)C(N)C(=O)Nc1nnc(-c2ccc(Br)cc2)s1 (stereo not drawn) [2-amino-N-(5-(4-bromophenyl)-[1,3,4]thiadiazol-2-yl)-3-methylpentanamide] | no reporter activation at all |  | 
2 | COc1ccc(-c2nnc(NC(=O)C(N)Cc3ccccc3)s2)cc1 (stereo not drawn) [2-amino-N-(5-(4-methoxy-phenyl)-[1,3,4]thiadiazol-2-yl)-3-phenylpropanamide] | no reporter activation at all |  | 
3 | O=C(C=C(O)c1ccccc1)c1ccccc1O [2′β-dihydroxychalcone] |  |  | fold reporter activation over background (10 μM, SH-SY5Y-ODD-luc): 7.5 fold; reporter activation (%) relative to ciclopirox (100%) and DMSO (0%) (10 μM, SH-SY5Y-ODD-luc): 71%
4 | Oc1cccc(CN2CCCn3cccc3C2c2ccc(F)cc2)c1O (stereo not drawn) [3-((1-(4-fluorophenyl)-4,5-dihydro-1H-pyrrolo[1,2-a][1,4]diazepin-2(3H)-yl)methyl)benzene-1,2-diol] |  | 40 | 
5 | Oc1cccc(CN2CCN(CCOC(c3ccccc3)c3ccc(F)c(F)c3)CC2)c1O (stereo not drawn) [3-((4-(2-((3,4-difluorophenyl) (phenyl)methoxy)ethyl)piperazin-1-yl)methyl)benzene-1,2-diol] |  | 60 | 
6 | FC(F)(F)c1ccccc1-n1c(S)nnc1-c1nccc2ccccc12 [5-isoquinolin-1-yl-4-(2-trifluoromethyl-phenyl)-4H-[1,2,4]triazole-3-thiol] | close to that for the internal standard |  | 
7 | O=C1/C(=N\Nc2nc3ccccc3s2)C(c2ccccc2)=NN1c1ccccc1 [(Z)-4-(benzo[d]thiazol-2-ylhydrazono)-1,3-diphenyl-1H-pyrazol-5(4H)-one] |  | 70 | 
8 | N[C@H](Cc1ccc(O)c(O)c1)C(=O)O [D-dopa, reference compound] | not |  | 
9 | O=C1/C(=N\Nc2nccs2)C(c2ccccc2)=NN1c1ccccc1 [I, (Z)-1,3-diphenyl-4-(thiazol-2-yl-hydrazono)-1H-pyrazol-5(4H)-one] |  | 86 | 
10 | S=C(Nc1ccccc1)Nc1nccs1 [III, 1-phenyl-3-(1,3-thiazol-2-yl)thiourea] |  | 41 | fold reporter activation over background (10 μM, SH-SY5Y-ODD-luc): five-fold
11 | O=C(Nc1nnc(-c2cccc(Br)c2)s1)C1CCCN1 (stereo not drawn) [IV, N-[5-(3-bromophenyl)-[1,3,4]thiadiazol-2-yl]pyrrolidine-2-carboxamide] |  | 35 | 
12 | CC(C)n1c(S)nnc1-c1nccc2ccccc12 [V, 4-isopropyl-5-isoquinolin-1-yl-4H-[1,2,4]triazole-3-thiol] | close to that for the internal standard | 90 | 
13 | O=C1/C(=C\c2ccc(O)c(O)c2)SC(=S)N1c1ccccc1 [VI, (E)-5-(3,4-dihydroxybenzylidene)-3-phenyl-2-thioxothiazolidin-4-one] |  | 38 | 
14 | Oc1c(Br)cc(Br)c2cccnc12 [broxyquinoline, reference compound] | comparable |  | 
15 | C[C@@](Cc1ccc(O)c(O)c1)(NN)C(=O)O [carbidopa, reference compound] | not |  | 
16 | O=C(CCl)c1ccc(O)c2ncccc12 [chloroacetoquinoline] | comparable to 8-hydroxyquinoline itself |  | 
17 | Oc1c(Cl)cc(Cl)c2cccnc12 [chloroxine, reference compound] | comparable |  | 
18 | Cc1cc(C2CCCCC2)n(O)c(=O)c1 [ciclopirox, reference compound] |  |  | fold reporter activation over background (10 μM, SH-SY5Y-ODD-luc): 10 fold
19 | Oc1c(I)cc(Cl)c2cccnc12 [clioquinol, reference compound] | comparable |  | 
20 | NCCc1ccc(O)c(O)c1 [dopamine, reference compound] | not |  | 
21 | CC1=NN(c2ccccc2)C(=O)C1 [edaravone, reference compound] | no reporter activation |  | 
